The values below come from patent US20250197820A1, “NUCLEIC ACID POLYMERASE AND ITS USE IN PRODUCING NON-DNA NUCLEOTIDE POLYMERS” (UNITED KINGDOM RESEARCH AND INNOVATION, priority 2021, published 2025).

Data set [1] has as its system 2.1 kb KRAS transcript (Sub_KRas_ORF). Nature of the data set: 2′OMezyme cleavage of long KRAS transcripts. Format: biochemical, human. As to conditions: 37° C., pH 7.4, 1 mM Mg^2+, 65 h. Here is the method:
Human cDNA clones for KRAS (transcript variant b, accession no. NM_004985) and CTNNB1 (transcript variant 1, accession no. NM_001904) in plasmids pCMV6-XL6 (SP6 promoter) (cat. no. SC109374) and pCMV6-XL5 (T7 promoter) (cat. no. SC107921), respectively, were obtained from OriGene, USA. Site-directed mutagenesis was performed using a QuikChange II kit (Agilent Technologies, USA), according to the manufacturer's protocol; KRAS mutations G12D (c.35G>A) and G13D ([…]), and CTNNB1 mutation S33Y (c.98C>A) were introduced using primer sets shown in Supplementary Table 2 (“Quik_KRAS_G12D_Fw/Rev”, “Quik_KRAS_G13D_Fw/Rev” or “Quik_CTNNB_G12D_Fw/Rev”) and resulting plasmids cloned and verified by Sanger sequencing (Source Biosciences, UK). Long RNA substrates equivalent to full KRAS and CTNNB1 mRNA transcripts bearing 5′ fluorescein (“Sub_KRas_ORF” and “Sub_CTNNB1_ORF”, respectively) were prepared using HiScribe T7 and SP6 RNA synthesis kits (NEB, USA), according to the manufacturer's protocol, with a 4:1 ratio of 5′-Fluorescein-ApG dinucleotide (IBA Life Sciences, Germany) to GTP, using template plasmids linearised using XmaI (NEB, USA). Reactions were subsequently treated with TURBO DNase (Invitrogen/Thermo Fisher Scientific, USA) and RNA transcripts purified using RNeasy mini kits (Qiagen, Germany). […]

Data set [2] deals with ‘wild type’ (wt) KRAS RNA. Nature of the data set: 2′OMezyme RNA cleavage in trans, wild type KRAS substrate. As to conditions: differs from G12D substrate by one nucleotide (G35). Format: biochemical, human. The procedure:
(§1) RNA cleavage assays were performed in trans using PAGE-purified 2′OMezymes and RNA substrates, annealed as described above and incubated at 37° C. in 2′OMezyme selection buffer (30 mM EPPS pH 7.4, 150 mM KCl, 1 mM MgCl2), or 30 mM EPP pH 8.5, 150 mM KCl, 25 mM MgCl2, supplemented with RNasin ribonuclease inhibitor (Promega, USA). In Mg^2+ titration experiments, 2′OMezyme selection buffer was supplemented with additional magnesium chloride (MgCl2); in pH titration experiments, 150 mM KCl, 1 mM MgCl2 plus 50 mM buffer as follows was used: […] (pH 5.0-6.0), EPPS (pH 6.5-8.75), CHES (pH 9.0-12.0). For magnesium free reactions, 30 mM EPPS pH 7.4, 150 mM KCl, 5 mM EDTA was used.

Data set [3] relates to Sub_KRas_12 [G12D] RNA. The experiment in a line: 2′OMezyme RNA cleavage in trans, KRAS G12D substrate. Format: biochemical, human. The procedure:
as §1
Pseudo first-order reaction rates (kobs) under single-turnover pre-steady-state (Km/kcat) conditions were determined from three independent reactions with (separately annealed) catalyst at 5 μM and substrate at 1 μM, as described previously^8, fit using Prism 9 (GraphPad Software, USA). For multiple turnover reactions, 1 μM substrate was reacted with 10 nM 2′OMezyme at 37° C. in 2′OMezyme selection buffer.

Data set [4] in a line: 2′OMezyme serum stability. Format: in vitro ADME. As to conditions: 37° C., 120 h. Here is the method:
PAGE-purified 2′OMezyme “R15/5-K” and DNAzyme “1023_KRasC” were annealed in water as described above, then incubated (at 5 μM) at 37° C. in 95% human serum (MilliporeSigma, Germany). Full-length catalyst remaining was quantified on Urea-PAGE gels stained with SYBR Gold (ThermoFisher Scientific, USA).

The target of data set [5] is T1, 2M (Thermococcus gorgonarius, UniProt P56689, A485L/D141A/E143A/E664K/F545L/I521L/K592A/T541G/V93Q/Y409G).
T1 construct: made in house; host or cells: E. coli BL21 CodonPlus-RIL
Nature of the data set: Steady-state kinetics of single nucleotide incorporation by 2M. The format is biochemical. Conditions: single nucleotide incorporation from 2′OMe-RNA primer. The procedure: Steady-state kinetic parameters for NTP incorporation by 2M were determined by performing initial velocity measurements of single incorporations of either ATP, 2′OMe-ATP, or MOE-ATP. To generate the 2′OMe-RNA/DNA substrate, a 20-mer 2′OMe-RNA primer FD was 5′ 6-carboxyfluorescein end-labeled and annealed to the 52-mer DNA template BFL770 (Supplementary Table 1) at a 1:1.2 molar ratio. The reactions were performed at 50° C. in a mixture containing 1× Thermopol buffer, 6 mM Mg^2+, 100 nM 2′OMe-RNA/DNA substrate, and at NTP concentrations ranging from 0.5-250 μM. Enzyme concentrations and reaction times were selected to maintain initial velocity conditions. The 25 μL reactions were stopped by addition of a quenching solution containing 100 mM EDTA, 80% deionized formamide, 0.25 mg/ml bromophenol blue and 0.25 mg/ml xylene cyanol. Moreover, less than 20% of the primers were extended as required for steady-state conditions.
Product and substrate were separated on a 22% denaturing (8 M urea) polyacrylamide gel. The resulting bands were quantified using a Cytiva Typhoon RGB imager in fluorescence mode. Steady-state kinetic parameters (KM, kcat) were determined by fitting the data to the Michaelis-Menten equation. The data are the means and standard error from three independent experiments.

The target in data set [6] is TGK (Thermococcus gorgonarius, UniProt P56689, A485L/D141A/E143A/E664K/V93Q/Y409G). Conditions: ATP incorporation from an RNA primer; cited from earlier work.
Data set [7] addresses T2, VEGF165 (Homo sapiens, UniProt P15692-4 P15692-4:27-191). The experiment in a line: SPR; overall mean +/-29; PBS + 0.1% Tween20, 20 C; double-exponential fit. Conditions: tags: biotinylated, Bio-Techne, captured on Neutravidin chip; chain copies: 2. The procedure:
(§2) 2′OMe/MOE-RNA aptamers were synthesized from RNA primer Prim1 and 3′-biotinylated DNA template Temp_ARC224 (Supplementary Table 1) as described in section “Synthesis of 2′OMezymes for characterization” using 2′OMe/MOE-NTPs. 2′OMe/MOE-RNA aptamers were annealed at 1-10 μM in nuclease-free water by heating to 95° C. for 5 min and equilibrating at RT for 10 min. They were then diluted and analysed in PBS+0.1% (v/v) Tween20 (PBS-Tw). Surface Plasmon Resonance (SPR) measurements were made using a BIAcore 2000 instrument (GE Life Sciences, UK) at a flow rate of 20 μLmin⁻¹ at 20° C. CM4 sensor chip (GE Life Sciences, UK) surfaces were coated with Neutravidin (Pierce 31000, ThermoFisher Scientific, USA) surfaces (˜8000 RU per flow cell) using an amine coupling kit (GE Life Sciences, UK) and flowing in 5 mM NaOAc (sodium acetate), pH 5.5. Chips were equilibrated in PBS Tw and left to flow overnight until signal drift had settled. ˜2000 RU biotinylated human VEGF165 (Bio-Techne, USA) was captured (except for the reference cell) before blocking with excess free biotin. 50 μL aptamer samples at a series of concentrations (500 nM, 250 nM, 125 nM, 62.5 nM, 31.3 nM, 15.6 nM, 7.8 nM, 3.9 nM) were injected for 150 s and dissociation was recorded for 600 s, in PBS-Tw. Single injections of aptamers outside of the concentration series were performed at 100 nM (50 μL) in PBS-Tw. […]
On the technique in general: SPR reads the build-up and loss of mass on a sensor chip optically.

Data set [8] relates to 901 bp DNA template (sfGFP under T7 promoter). Nature of the data set: 2′OMe-RNA transcription reactions with RGVG-M6. As to conditions: compared to 2M; dependent on high concentrations of Mn2+. The format is biochemical. The procedure:
DNA template for transcription reactions was created by PCR-amplifying a 901-bp region on a plasmid encoding sfGFP under a T7 promoter. The PCR used 0.5 μM forward primer “5T7.for” and 0.5 μM reverse primer “pCUN_Do.rev”; cycling conditions were 95° C. for 30 s, 30×[95° C. for 10 s, 69° C. for 30 s, 72° C. for 30 s], 72° C. for 2 min.
For very permissive conditions, reactions comprised 125 nM DNA template, 200 nM T7 RNAP WT or its variant RGVG-M613, 1.5 mM MnCl2, 7.5 mM each NTP or 1 mM each 2′OMe-NTP, 0.1 U yeast inorganic pyrophosphatase. In order to compare the yield of 2′OMe-RNA synthesis by 2M and RGVG-M6, reactions were run under equimolar nucleic acid input of 0.5 pmol primer (2M) and 0.5 pmol DNA template (50 nM, RGVG-M6), and 50 nM RGVG-M6 polymerase with a polymerase:template ratio of 1:1 as described in 13. Reactions were treated with Turbo DNase and Proteinase K followed by denaturing PAGE.

The target in data set [9] is T2, VEGF165. The experiment in a line: SPR; overall mean +/-16; PBS + 0.1% Tween20, 20 C; double-exponential fit. As to conditions: tags: biotinylated, Bio-Techne, captured on Neutravidin chip; chain copies: 2. Here is the method:
as §2

Data set [10] has as its target T2, VEGF165. The experiment in a line: SPR; overall mean +/-88; PBS + 0.1% Tween20, 20 C; double-exponential fit. Conditions: tags: biotinylated, Bio-Techne, captured on Neutravidin chip; chain copies: 2. The procedure: as §2

Usually kcat stands for the maximal rate divided by the concentration of active sites. In the case of “R15/5-K: RNA endonuclease 2′OMezyme (all 2′OMe-RNA) specific for KRAS RNA c.26 - 44, G12D allele (CCUACGCACGUGACCCAUGACGGACAGAGAAGGCAUGACAGACUGCUCCAA; all 2'-O-methyl, backbone not given here)”, the “cleavage of wt KRAS transcript or G13D (c.38G>A) transcript” value in data set [1] is given as “virtually no cleavage”. Also, the “cleavage of long structured KRAS transcript bearing G12D” value in data set [1] (G12D (c.35G>A)) is “able to invade and cleave”. In addition, the “cleavage of wt KRAS RNA” value in data set [2] is “essentially no cleavage”. Further, in data set [3] (10 nM 2′OMezyme, 1 μM substrate), the multiple-turnover catalysis entry is recorded as “capable of multiple-turnover catalysis”. The kcat in [3] (1 mM Mg^2+, pH 7.4, 37° C., single turnover) stood at 3.06e-05 s⁻¹; in [3] (5 mM EDTA, pH 7.4, 37° C. (absence of Mg^2+)), 2.8e-07 s⁻¹; in [3] (25 mM Mg^2+, pH 8.5, 37° C., single turnover, 5 μM 2′OMezyme, 1 μM substrate) it was 6.67e-05 s⁻¹. In [3] (1 mM Mg^2+, pH 7.4 vs 25 mM Mg^2+, pH 8.5), the “reduction of single-turnover rate compared with optimal conditions” value was “approximately 50%”. Besides, in data set [3] (quasi-physiological low-Mg^2+ regime (0.5-1 mM Mg^2+)), the activity retained is 70-80%. For the same molecule, the “degradation (or loss in activity) after incubation in human serum” value in data set [4] is “no significant degradation”.
As a reminder, the Km is the concentration of substrate that gives half-maximal velocity. Consider `Nc1ncnc2c1ncn2[C@@H]1O[C@H](COP(=O)(O)OP(=O)(O)OP(=O)(O)O)[C@@H](O)[C@H]1O` [ATP], for which the “Vmax/kcat values for incorporation” value in data set [5] is “essentially identical”. The Km in [6] is 13.3 µM.
As a reminder, the Kd is the free concentration of one partner at which half of the binding sites on the other are occupied at equilibrium, for simple one-to-one binding. With CGATATGCAGTTTGAGAAGTCGCGCATTCG (XNA, 2'-OMe G and U, 2'-O-MOE A and C) [ARC224 2'OMe-GU MOE-AC], the Kd in data set [7] turned out to be 30 nM.

B1: RGVG-M6: T7 RNA polymerase variant (P266L, S430P, N433T, E593G, S633P, Y639V, V685A, H784G, F849I, F880Y) (protein, UniProt P00573 1-883, looked up, variant P266L S430P N433T E593G S633P Y639V V685A H784G F849I F880Y)
T7 RNA polymerase: MNTINIAKNDFSDIELAAIPFNTLADHYGERLAREQLALEHESYEMGEARFRKMFERQLKAGEVADNAAAKPLITTLLPKMIARINDWFEEVKAKRGKRPTAFQFLQEIKPEAVAYITIKTTLACLTSADNTTVQAVASAIGRAIEDEARFGRIRDLEAKHFKKNVEEQLNKRVGHVYKKAFMQVVEADMLSKGLLGGEAWSSWHKEDSIHVGVRCIEMLIESTGMVSLHRQNAGVVGQDSETIELAPEYAEAIATRAGALAGISLMFQPCVVPPKPWTGITGGGYWANGRRPLALVRTHSKKALMRYEDVYMPEVYKAINIAQNTAWKINKKVLAVANVITKWKHCPVEDIPAIEREELPMKPEDIDMNPEALTAWKRAAAAVYRKDKARKSRRISLEFMLEQANKFANHKAIWFPYNMDWRGRVYAVPMFTPQGNDMTKGLLTLAKGKPIGKEGYYWLKIHGANCAGVDKVPFPERIKFIEENHENIMACAKSPLENTWWAEQDSPFCFLAFCFEYAGVQHHGLSYNCSLPLAFDGSCSGIQHFSAMLRDEVGGRAVNLLPSETVQDIYGIVAKKVNEILQADAINGTDNGVVTVTDENTGEISEKVKLGTKALAGQWLAYGVTRSVTKRPVMTLAVGSKEFGFRQQVLEDTIQPAIDSGKGLMFTQPNQAAGYMAKLIWESASVTVVAAVEAMNWLKSAAKLLAAEVKDKKTGEILRKRCAVHWVTPDGFPVWQEYKKPIQTRLNLMFLGQFRLQPTINTNKDSEIDAHKQESGIAPNFVGSQDGSHLRKTVVWAHEKYGIESFALIHDSFGTIPADAANLFKAVRETMVDTYESCDVLADFYDQIADQLHESQLDKMPALPAKGNLNLRDILESDYAFA
B1: the “2′OMe-RNA synthesis activity (in words)” value in data set [8] is “modest”.
Consider CGATATGCAGTTTGAGAAGTCGCGCATTCG (XNA, all 2'-OMe (A,C,G,U)) [ARC224 2'OMe], for which, in data set [9], the Kd was 23 nM.
As to CGATATGCAGTTTGAGAAGTCGCGCATTCG (XNA, 2'-OMe U, 2'-O-MOE A, C and G) [ARC224 2'OMe-U MOE-ACG], the Kd in [10] turned out to be 92 nM.
